# Reference: patent publication US20150147276A1, “NANOTHERAPEUTICS FOR DRUG TARGETING” (PRESIDENT AND FELLOWS OF HARVARD COLLEGE, priority 2012, published 2015)
# Entries after “also recorded” stand apart in the source; their conditions may differ.
# Experiments:
# [1] = tested on: thrombus in FeCl3-injured mesenteric arteries; experiment: Mouse ferric chloride arterial injury (thrombosis) model; assay type: in vivo; settings: bolus, same tPA dose (50 ng)
# Method: A previously described model was used with minor modifications (16). In brief, male C57BL/6 mice (3-4 weeks old) were anesthetized with 2.5% tribromoethanol (0.15 ml/10 g) and injected with fluorescently labeled platelets (calceinRed/Orange, ˜1×10^9 platelets/kg). An incision was made through the abdominal wall to expose the mesentery and arterioles (˜100 μm in diameter) were visualized using a Zeiss Axiovert 135-inverted microscope (objectives: 10× and 32×, Carl Zeiss Microlmaging, Inc.) and recorded on videotape. Whatman filter paper saturated with FeCl3 (10%) solution was applied topically for 5 min, which caused denudation of the endothelium. […] Following this bolus injection, the vessels were monitored until full occlusion occurred (blood flow stopped) and lasted for more than 10 seconds. The shear rate was calculated using an optical Doppler velocity meter (Microcirculation Research Institute, Texas A&M College of Medicine, College Station, Tex.) (17). […]
# fibrin clots = target: T1, fibrin clots (Homo sapiens, UniProt P02671+P02675+P02679); experiment: Microfluidic model of vascular embolism (fibrin clot lysis); assay type: biochemical; settings: 50 ng/ml tPA, same flow conditions
# T1 construct: purchased Enzyme Research Laboratories, IN (fibrinogen, α-thrombin); Cell Sciences, MA (plasminogen)
# T1 sequence (P02671 36-629 limits assumed): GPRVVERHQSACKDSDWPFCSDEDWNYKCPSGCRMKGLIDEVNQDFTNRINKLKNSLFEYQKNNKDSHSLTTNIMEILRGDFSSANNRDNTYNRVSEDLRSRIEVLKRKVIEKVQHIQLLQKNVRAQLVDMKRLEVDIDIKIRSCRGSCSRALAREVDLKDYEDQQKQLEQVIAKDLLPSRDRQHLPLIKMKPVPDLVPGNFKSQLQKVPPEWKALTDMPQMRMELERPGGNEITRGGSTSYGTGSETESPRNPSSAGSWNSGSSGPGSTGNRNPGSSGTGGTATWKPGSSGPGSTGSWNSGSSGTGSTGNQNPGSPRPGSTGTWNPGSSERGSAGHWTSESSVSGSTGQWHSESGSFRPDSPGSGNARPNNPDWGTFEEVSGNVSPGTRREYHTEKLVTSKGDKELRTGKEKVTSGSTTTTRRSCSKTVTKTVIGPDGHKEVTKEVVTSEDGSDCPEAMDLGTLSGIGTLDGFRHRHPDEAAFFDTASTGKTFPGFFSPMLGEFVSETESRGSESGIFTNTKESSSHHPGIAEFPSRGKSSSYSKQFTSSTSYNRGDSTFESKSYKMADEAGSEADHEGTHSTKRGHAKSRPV
# T1 sequence (P02675 45-491 limits assumed): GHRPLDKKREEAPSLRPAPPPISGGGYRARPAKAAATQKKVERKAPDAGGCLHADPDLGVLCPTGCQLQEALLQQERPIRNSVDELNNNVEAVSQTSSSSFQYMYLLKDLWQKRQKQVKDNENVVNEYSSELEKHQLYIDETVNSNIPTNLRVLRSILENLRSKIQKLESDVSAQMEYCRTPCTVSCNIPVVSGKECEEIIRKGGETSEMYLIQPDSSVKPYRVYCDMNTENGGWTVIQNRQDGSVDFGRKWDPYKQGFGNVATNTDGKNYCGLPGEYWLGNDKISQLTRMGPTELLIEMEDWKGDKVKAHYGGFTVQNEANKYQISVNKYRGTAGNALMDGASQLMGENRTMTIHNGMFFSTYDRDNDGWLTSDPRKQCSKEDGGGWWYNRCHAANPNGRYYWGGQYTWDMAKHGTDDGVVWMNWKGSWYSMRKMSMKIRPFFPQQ
# T1 sequence (P02679 27-437 isoform P02679-2 limits assumed): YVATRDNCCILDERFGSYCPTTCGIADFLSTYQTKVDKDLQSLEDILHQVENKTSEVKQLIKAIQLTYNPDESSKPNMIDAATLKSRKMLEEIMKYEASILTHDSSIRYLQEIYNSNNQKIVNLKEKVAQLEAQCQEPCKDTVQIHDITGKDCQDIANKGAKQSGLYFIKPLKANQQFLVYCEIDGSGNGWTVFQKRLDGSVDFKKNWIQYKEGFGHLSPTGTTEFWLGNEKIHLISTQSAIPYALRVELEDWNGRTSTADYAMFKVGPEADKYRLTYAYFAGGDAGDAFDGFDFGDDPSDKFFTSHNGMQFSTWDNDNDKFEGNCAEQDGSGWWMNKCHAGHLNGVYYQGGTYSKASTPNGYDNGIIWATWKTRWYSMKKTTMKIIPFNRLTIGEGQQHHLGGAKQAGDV
# Excerpt: Microfluidic devices with a narrowed cross-sectional area (80 μm high×0.5 mm wide×200 mm long) were fabricated using soft lithography as described above. Fibrin clots formed as described below that were infused into the main channel lodged and obstructed the flow in these smaller channels. A solution of tPA or tPA coated SA-NTs was infused at a flow rate corresponding to a shear stress of 10 dyne/cm2 in an unobstructed channel. Prior to infusion of the tPA solutions, bovine plasminogen (Cell Sciences, MA) was added to a final concentration of 2.2 μM (30). During the fibrinolysis process, the fibrin clot sizes were monitored in real-time (images acquired every 30 sec) on an inverted Zeiss microscope.
# (§1) Fibrin clots were formed by adding CaCl2 (20 mM) and human α-thrombin (1 units/ml final concentrations, Enzyme Research Laboratories, IN) to human fibrinogen (5 mg/ml, Enzyme Research Laboratories, IN), as previously described (23, 31). This solution was immediately added drop-wise to a solution of canola oil with Span-80 (0.05%). The emulsion was mixed at 350 rpm for 4 hr and centrifuged (500 g, 5 min), followed by repeated washing in ethanol and water. The diameter of the resulting fibrin beads was determined by optical microscopy to be ˜250 μm. By adjusting the mixing speed in the described protocol, fibrin beads of smaller defined sizes were produced.
# [2] = tested on: fibrin clots in pulmonary arteries; experiment: Ex vivo mouse pulmonary embolism model (lung ventilation-perfusion)
# Method: as §1
# 6-8 week-old C57BL/6 male mice (Jackson Laboratory, Bar Harbor, Me.) were weighed and anesthetized with Avertin (200 mg/kg IP). The trachea was incised via surgical tracheotomy, and cannulated with a blunted 22G stainless steel needle tip. The lungs were subsequently ventilated at a rate of 60 breaths/min, with a Peak Inspiratory Pressure (Pip) of 10 cm H2O and a Positive End Expiratory Pressure (Peep) of 3 cmH2O with compressed air using a mouse ventilator (VCM-R, Hugo Sachs Elektroniks, Germany). Ex vivo ventilation and perfusion of the mouse lung was performed using an IL1 ex vivo mouse lung ventilation-perfusion system (Harvard Apparatus, Natick, Mass.), (32). Following initiation of mechanical ventilation, the chest was opened via thoracotomy, and heparin (100 IU) was injected into the right ventricle. […] A suture was placed around the pulmonary artery and aorta. Cannulae made from polyethylene tubing (PE90 (0.86 mm ID, 1.7 mm OD)) were placed in the pulmonary artery (PA) and left atrium (LA), and lungs were perfused with RPMI-1640 with 4% Bovine Albumin (PROBUMIN™ Reagent Grade, Billerica, Mass.) and 0.7 g NaCl/500 ml via a roller pump (ISM 834C, Ismatec SA, Switzerland) set at a constant flow rate of 0.5 ml/min in a recirculating system with a system volume of 6 ml. Perfusate and lung temperatures were maintained at 37° C. by housing the entire ex-vivo ventilation perfusion system inside a standard cell incubator without CO2 (Forma Scientific, Ohio). Humidity was maintained in the range […]. Pulmonary arterial and left atrial pressures and airway flow and pressures were recorded with dedicated Type 379 vascular pressure and DLP2.5 flow and MPX Type 399/2airway pressure transducers and TAM-A amplifiers (Hugo Sachs Elektroniks, Germany). Vascular pressures were zeroed at the mid lung level prior to each experiment and recorded using Polyview16© software (Grass Technologies, West Warwick, R.I.). Prior to injection of experimental fibrin clots (prepared as above), the measured pressures were allowed to stabilize and remain stable for a period of more than 10 minutes. A solution of fibrin clots suspended in perfusion medium was infused at a flow rate of 0.1 ml/min and mixed with the regular perfusion line entering the pulmonary artery. The fibrin clot suspension was infused until the pulmonary artery pressure increased to ˜three-fold higher than the baseline. The system was then allowed to equilibrate and remain stable for at least 10 minutes. Next, tPA-coated SA-NTs or free soluble tPA was added to the main perfusion line and circulated through the perfusion system. As in the microfluidic device experiments, when tPA was perfused, plasminogen was added to obtain a final concentration of 2.2 μM. Pulmonary artery and vein pressures were acquired continuously during the perfusion period. […]
substance,measurement,setting,value
tissue plasminogen activator [free tPA],delay of time to full vascular occlusion,[1],"did not produce any significant delay; also recorded: neither addition of free tPA, pre-dissociated tPA-NPs, nor heat-fused tPA-NP microaggregates (that do not dissociate in high shear) produced any detectable effects"
same,reduction in clot size,fibrin clots,< 5%
same,effect on pulmonary artery pressure,[2]; 50 ng/ml,did not reduce pulmonary artery pressure
same,effect on pulmonary artery pressure,"[2]; 50 ng/ml, listed as soluble tPA",failed to produce any significant response
same,effect on pulmonary artery pressure,[2]; 500 ng/ml (ten times higher dose),did not reduce pulmonary artery pressure
same,effect on pulmonary artery pressure,"[2]; 500 ng/ml (ten times higher dose), listed as soluble tPA",failed to produce any significant response
same,effect on pulmonary artery pressure,"[2]; 5,000 ng/ml (100-fold higher dose)",produced similar effects
